The results in this text go back to patent US20160083357A1, “NOVEL TETRAZOLONE DERIVATIVES” (Hoffmann-La Roche Inc., priority 2013, published 2016).

For one assay, the target named is T1, human CB1 receptors (Homo sapiens, UniProt P21554).
T1 construct: expressed in transfected cells; host or cells: CHO cells
Kind of assay: cAMP assay, human CB1. Type of assay: cell-based. Here is the method: (§1) CHO cells expressing human CB1 or CB2 receptors are seeded 17-24 hours prior to the experiment 50.000 cells per well in a black 96 well plate with flat clear bottom (Corning Costar #3904) in DMEM (Invitrogen No. 31331), lx HT supplement, with 10% fetal calf serum and incubated at 5% CO2 and 37° C. in a humidified incubator. The growth medium was exchanged with Krebs Ringer Bicarbonate buffer with 1 mM IBMX and incubated at 30° C. for 30 min. Compounds were added to a final assay volume of 100 μl and incubated for 30 min at 30° C. Using the cAMP-Nano-TRF detection kit the assay (Roche Diagnostics) was stopped by the addition of 50 μl lysis reagent (Tris, NaCl, 1.5% Triton X100, 2.5% NP40, 10% NaN3) and 50 μl detection solutions (20 μM mAb Alexa700-cAMP 1:1, and 48 μM Ruthenium-2-AHA-cAMP) and shaken for 2 h at room temperature. The time-resolved energy transfer is measured by a TRF reader (Evotec Technologies GmbH), equipped with a ND:YAG laser as excitation source. The plate is measured twice with the excitation at 355 nm and at the emission with a delay of 100 ns and a gate of 100 ns, total exposure time 10 s at 730 (bandwidth 30 nm) or 645 nm (bandwidth 75 nm), respectively. The FRET signal is calculated as follows: FRET=T730-Alexa730-P(T645-B645) with P=Ru730-B730/Ru645-B645, where T730 is the test well measured at 730 nM, T645 is the test well measured at 645 nm, B730 and B645 are the buffer controls at 730 nm and 645 nm, respectively. cAMP content is determined from the function of a standard curve spanning from 10 μM to 0.13 nM cAMP.
(§2) EC50 values were determined using Activity Base analysis (ID Business Solution, Limited). The EC50 values for a wide range of cannabinoid agonists generated from this assay were in agreement with the values published in the scientific literature.
(In general: Changes in cAMP serve as a functional read-out for many G protein-coupled receptors.)

A further assay has as its target T2, human CB2 receptors (Homo sapiens, UniProt P34972).
T2 construct: expressed in transfected cells; host or cells: CHO cells
Kind of assay: cAMP assay, human CB2. Type of assay: cell-based. Here is the method:
as §1, §2

Setting [1] is: functional cAMP assay, CHO cells expressing human CB1, read-out: Ec50: CB1 - hu cAMP.
Setting [2] is: functional cAMP assay, CHO cells expressing human CB2, read-out: Ec50: CB2 - hu cAMP.

Structures are written as SMILES. Where two headings read alike, the source gives them in different places.

T2 sequence (P34972 whole entry): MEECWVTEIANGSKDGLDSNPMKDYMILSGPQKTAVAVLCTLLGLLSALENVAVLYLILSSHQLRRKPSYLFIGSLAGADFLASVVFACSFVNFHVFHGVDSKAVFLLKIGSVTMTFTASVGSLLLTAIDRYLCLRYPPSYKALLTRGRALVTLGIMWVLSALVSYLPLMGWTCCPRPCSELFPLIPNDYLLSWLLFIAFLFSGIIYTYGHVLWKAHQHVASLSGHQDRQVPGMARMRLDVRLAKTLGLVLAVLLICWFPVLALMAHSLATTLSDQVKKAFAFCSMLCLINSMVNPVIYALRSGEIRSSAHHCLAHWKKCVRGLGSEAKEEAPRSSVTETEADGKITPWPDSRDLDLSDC
T1 sequence (P21554 whole entry): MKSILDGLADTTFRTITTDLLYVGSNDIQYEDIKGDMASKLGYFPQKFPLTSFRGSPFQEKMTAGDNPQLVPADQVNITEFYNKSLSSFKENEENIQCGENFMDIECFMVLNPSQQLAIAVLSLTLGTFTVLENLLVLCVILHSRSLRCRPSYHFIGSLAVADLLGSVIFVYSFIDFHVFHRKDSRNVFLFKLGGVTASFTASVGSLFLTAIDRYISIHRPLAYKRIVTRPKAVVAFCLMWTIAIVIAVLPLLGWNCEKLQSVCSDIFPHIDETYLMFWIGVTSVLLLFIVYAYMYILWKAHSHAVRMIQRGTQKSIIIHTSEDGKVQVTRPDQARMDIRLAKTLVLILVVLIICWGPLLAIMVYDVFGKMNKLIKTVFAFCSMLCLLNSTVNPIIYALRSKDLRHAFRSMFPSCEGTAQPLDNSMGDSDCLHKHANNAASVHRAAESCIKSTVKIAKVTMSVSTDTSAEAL

`O=C(N1CCS(=O)(=O)CC1)n1nnn(-c2cccc(F)c2)c1=O` [Example 29, 1-(1,1-Dioxo-1λ6-thiomorpholine-4-carbonyl)-4-(3-fluoro-phenyl)-1,4-dihydro-tetrazol-5-one]: the EC50 (commonly the concentration giving half of the maximal effect) on human CB1 receptors (setting [1]) was greater than 10000 nM; on human CB2 receptors (setting [2]) it was 41.6 nM.
With `O=C(N1CCCC1Cc1ccccc1)n1nnn(-c2cccc(F)c2)c1=O` (centres unmarked) [Example 9, 1-(2-Benzyl-pyrrolidine-1-carbonyl)-4-(3-fluoro-phenyl)-1,4-dihydro-tetrazol-5-one], the values for the concentration giving a half-maximal response (EC50) on human CB1 receptors (setting [1]) and on human CB2 receptors (setting [2]) were greater than 10000 nM and 4.1 nM, respectively.
In the same order, the values of `O=C(CN1CCN(C(=O)n2nnn(-c3ccc(Cl)cc3)c2=O)CC1)N1CCOCC1` [Example 91, 1-(4-Chloro-phenyl)-4-[4-(2-morpholin-4-yl-2-oxo-ethyl)-piperazine-1-carbonyl]-1,4-dihydro-tetrazol-5-one] are greater than 10000 nM and 42.8 nM.
The like results for `CCCn1nnn(C(=O)N(C)c2cccnc2)c1=O` [Example 36, 5-Oxo-4-propyl-4,5-dihydro-tetrazole-1-carboxylic acid methyl-pyridin-3-yl-amide] were, in that order, greater than 10000 nM and 874 nM.
With `CCN(CCOC)C(=O)n1nnn(-c2cccc(F)c2)c1=O` [Example 7, 4-(3-Fluoro-phenyl)-5-oxo-4,5-dihydro-tetrazole-1-carboxylic acid ethyl-(2-methoxy-ethyl)-amide], the EC50 on human CB1 receptors was greater than 10000 nM; on human CB2 receptors, 2.7 nM.
Regarding `COCCCN(C)C(=O)n1nnn(-c2cccc(Cl)c2)c1=O` [Example 86, 4-(3-Chloro-phenyl)-5-oxo-4,5-dihydro-tetrazole-1-carboxylic acid (3-methoxy-propyl)-methyl-amide], the figures for the EC50 at human CB1 receptors (setting [1]) and on human CB2 receptors (setting [2]) were greater than 10000 nM and 1 nM, respectively.
The like results for `CC(=O)N[C@@H]1CCN(C(=O)n2nnn(-c3cccc(Cl)c3)c2=O)C1` [Example 65, N—{(R)-1-[4-(3-Chloro-phenyl)-5-oxo-4,5-dihydro-tetrazole-1-carbonyl]-pyrrolidin-3-yl}-acetamide] were, in that order, greater than 10000 nM and 15 nM.
The like results for `O=C(N1CCN(c2cnccn2)CC1)n1nnn(-c2cccc(F)c2)c1=O` [Example 30, 1-(3-Fluoro-phenyl)-4-(2,3,5,6-tetrahydro-[1,2′]bipyrazinyl-4-carbonyl)-1,4-dihydro-tetrazol-5-one] were, in that order, greater than 10000 nM and 205 nM.
In the same order, the values of `CC(=O)N[C@H]1CCN(C(=O)n2nnn(-c3ccc(Cl)cc3)c2=O)C1` [Example 70, N—{(S)-1-[4-(4-Chloro-phenyl)-5-oxo-4,5-dihydro-tetrazole-1-carbonyl]-pyrrolidin-3-yl}-acetamide] are greater than 10000 nM and 32.1 nM.
As for `CN(CCC#N)C(=O)n1nnn(-c2cccc(F)c2)c1=O` [Example 2, 4-(3-Fluoro-phenyl)-5-oxo-4,5-dihydro-tetrazole-1-carboxylic acid (2-cyano-ethyl)-methyl-amide], the EC50 on human CB1 receptors (setting [1]) is greater than 10000 nM; on human CB2 receptors (setting [2]) it was 11.5 nM.
The like results for `CN(C)C(=O)CN1CCN(C(=O)n2nnn(-c3ccc(Cl)cc3)c2=O)CC1` [Example 94, 2-{4-[4-(4-Chloro-phenyl)-5-oxo-4,5-dihydro-tetrazole-1-carbonyl]-piperazin-1-yl}-N,N-dimethyl-acetamide] were, in that order, greater than 10000 nM and 21.1 nM.
In the same order, the values of `CN(C(=O)n1nnn(C2CC2)c1=O)c1cccnc1` [Example 35, 4-Cyclopropyl-5-oxo-4,5-dihydro-tetrazole-1-carboxylic acid methyl-pyridin-3-yl-amide] are greater than 10000 nM and 161 nM.
In the case of `CCN(Cc1ccccc1)C(=O)n1nnn(-c2ccc(Cl)nc2)c1=O` [Example 53, 4-(6-Chloro-pyridin-3-yl)-5-oxo-4,5-dihydro-tetrazole-1-carboxylic acid benzyl-ethyl-amide], the results for the concentration giving a half-maximal response (EC50) at human CB1 receptors and at human CB2 receptors were greater than 10000 nM and 1 nM, respectively.
With `C[C@@H]1CN(C(=O)n2nnn(-c3cccc(F)c3)c2=O)C[C@H](C)O1` [Example 59, 1-((2S,6R)-2,6-Dimethyl-morpholine-4-carbonyl)-4-(3-fluoro-phenyl)-1,4-dihydro-tetrazol-5-one], the EC50 on human CB1 receptors (setting [1]) was greater than 10000 nM; on human CB2 receptors (setting [2]), 988 nM.
In the same order, the values of `O=C(N1CCOCC1)n1nnn(-c2cccc(C(F)(F)F)c2)c1=O` [Example 120, 1-(morpholine-4-carbonyl)-4-[3-(trifluoromethyl)phenyl]tetrazol-5-one] are greater than 10000 nM and 9.2 nM.
In the same order, the values of `CC1(C)CCN(C(=O)n2nnn(-c3cccc(Cl)c3)c2=O)CC1` [Example 77, 1-(3-Chloro-phenyl)-4-(4,4-dimethyl-piperidine-1-carbonyl)-1,4-dihydro-tetrazol-5-one] are greater than 10000 nM and 0.6 nM.
With `CCCCNC(=O)CN1CCN(C(=O)n2nnn(-c3cccc(OC(F)(F)F)c3)c2=O)CC1` [Example 108, N-Butyl-2-{4-[5-oxo-4-(3-trifluoromethoxy-phenyl)-4,5-dihydro-tetrazole-1-carbonyl]-piperazin-1-yl}-acetamide], the EC50 was greater than 10000 nM at human CB1 receptors (setting [1]) and 13.9 nM at human CB2 receptors (setting [2]).
Regarding `COCCN(C)C(=O)n1nnn(-c2cccc(F)c2)c1=O` [Example 54, 4-(3-Fluoro-phenyl)-5-oxo-4,5-dihydro-tetrazole-1-carboxylic acid (2-methoxy-ethyl)-methyl-amide], the EC50 at human CB1 receptors (setting [1]) is greater than 10000 nM; on human CB2 receptors (setting [2]) it was 1.3 nM.
For `O=C(N1CCc2cc(F)ccc2C1)n1nnn(-c2cccc(F)c2)c1=O` [Example 11, 1-(6-Fluoro-3,4-dihydro-1H-isoquinoline-2-carbonyl)-4-(3-fluoro-phenyl)-1,4-dihydro-tetrazol-5-one], the figures for the 50% effective concentration (EC50) on human CB1 receptors (setting [1]) and at human CB2 receptors (setting [2]) were greater than 10000 nM and 78.9 nM, respectively.
In the same order, the values of `CC1CN(C(=O)n2nnn(-c3cccc(Cl)c3)c2=O)CC(C)O1` (centres unmarked) [Example 137, 1-(3-chlorophenyl)-4-(2,6-dimethylmorpholine-4-carbonyl)tetrazol-5-one] are greater than 10000 nM and 130 nM.
The like results for `CC1(C)CCN(C(=O)n2nnn(-c3cccc(F)c3)c2=O)C1` [Example 47, 1-(3,3-Dimethyl-pyrrolidine-1-carbonyl)-4-(3-fluoro-phenyl)-1,4-dihydro-tetrazol-5-one] were, in that order, greater than 10000 nM and 2.7 nM.
Regarding `Cc1noc(C2CCCN2C(=O)n2nnn(-c3cccc(F)c3)c2=O)n1` (centres unmarked) [Example 25, 1-(3-Fluoro-phenyl)-4-[2-(3-methyl-[1,2,4]oxadiazol-5-yl)-pyrrolidine-1-carbonyl]-1,4-dihydro-tetrazol-5-one], the half-maximal effective concentration (EC50) was greater than 10000 nM on human CB1 receptors (setting [1]) and 26 nM at human CB2 receptors (setting [2]).
`CC(C)Cn1nnn(C(=O)N(C)c2cccnc2)c1=O` [Example 37, 4-Isobutyl-5-oxo-4,5-dihydro-tetrazole-1-carboxylic acid methyl-pyridin-3-yl-amide]: the values for the EC50 at human CB1 receptors (setting [1]) and on human CB2 receptors (setting [2]) were greater than 10000 nM and 407 nM, respectively.
The like results for `CC1(C)CCN(C(=O)n2nnn(-c3cccc(Cl)c3)c2=O)C1` [Example 138, 1-(3-chlorophenyl)-4-(3,3-dimethylpyrrolidine-1-carbonyl)tetrazol-5-one] were, in that order, greater than 10000 nM and 5 nM.
In the same order, the values of `CCN(C(C)=O)C1CCN(C(=O)n2nnn(-c3ccc(Cl)cc3)c2=O)C1` (centres unmarked) [Example 73, N-{1-[4-(4-Chloro-phenyl)-5-oxo-4,5-dihydro-tetrazole-1-carbonyl]-pyrrolidin-3-yl}-N-ethyl-acetamide] are greater than 10000 nM and 10.8 nM.
In the same order, the values of `CC1CN(C(=O)n2nnn(-c3cccc(F)c3)c2=O)CC(C)O1` (centres unmarked) [Example 58, 1-(2,6-Dimethyl-morpholine-4-carbonyl)-4-(3-fluoro-phenyl)-1,4-dihydro-tetrazol-5-one] are greater than 10000 nM and 45.4 nM.
Consider `COCCCN(C)C(=O)n1nnn(-c2cccc(OC(F)(F)F)c2)c1=O` [Example 87, 5-Oxo-4-(3-trifluoromethoxy-phenyl)-4,5-dihydro-tetrazole-1-carboxylic acid (3-methoxy-propyl)-methyl-amide], for which the concentration giving a half-maximal response (EC50) on human CB1 receptors was greater than 10000 nM; on human CB2 receptors it was 3.6 nM.
Consider `CC(=O)N[C@H]1CCN(C(=O)n2nnn(-c3cccc(OC(F)(F)F)c3)c2=O)C1` [Example 69, N—{(S)-1-[5-Oxo-4-(3-trifluoromethoxy-phenyl)-4,5-dihydro-tetrazole-1-carbonyl]-pyrrolidin-3-yl}-acetamide], for which the EC50 was greater than 10000 nM on human CB1 receptors (setting [1]) and 18.2 nM at human CB2 receptors (setting [2]).
